Assay results published in US11421349B2, “Photoactivatable fibers and fabric media” (KLOX TECHNOLOGIES INC., priority 2014, dated 2022).

Columns and labels:
Type in all cases: physicochemical
[1] = Effect of addition of a lubricant on the fluorescence emission of photoactivatable (doped) fibers; conditions: same concentration, lurol oil added, FIG. 5B
Source text: In the case of low concentrations of chromophore it can slightly red shift, and reduces bleaching time considerably. In higher concentrations of chromophore it red shifts, as well as increase fluorescence. The most effect seems to be around 10 g/L of lurol oil. Initially the fluorescence of Eosin Y doped fibers was 0.01 (FIG. 5A), but with the lurol oil added the fluorescence is boosted to 0.7. A comparison was done of Eosin Y and Fluorescein at the same concentration with lurol oil added.

[2] = Effect of addition of a lubricant (lurol oil) on the fluorescence emitted from Eosin Y solution; conditions: 320 μL lurol oil added to 2 mL of 109 μg/g Eosin Y in water
Procedure: The fluorescence of these two solutions was measured to determine if the lurol oil had any effect (FIG. 4).

[3] = Qualitative analysis of dental fiber doping (fluorescence under blue lamp)
Source text: Commercially available dental fibers were dipped into solutions of Eosin […], or 0.1 g/L) for 10 seconds. The fibers were taken out and observed for color, then put under a blue lamp and the fluorescence was observed qualitatively. […] Dental fibers were dipped into solutions of fluorescein (50 […]) for 10 seconds. The fibers were then taken out and observed for color, then put under a blue lamp and the fluorescence was observed qualitatively. […] Dental fibers were dipped into solutions of fluorescein:Eosin […] total chromophore) solution for 10 seconds again. The fibers were then taken out and observed for color, then put under a blue lamp and the fluorescence was observed qualitatively.

Compound	photo-degradation compared with Eosin Y [1]	photodegradation of Eosin Y solution with lurol oil [2]	shift of the fluorescence of the solution with lurol oil [2]	fluorescence of Eosin Y solution with lurol oil versus without ([2]; FIG. 4)	fluorescence observed qualitatively under blue lamp ([3]; commercial dental fibers dipped 10 seconds, 300-100 g/L solutions)	fluorescence observed qualitatively under blue lamp ([3]; dental fibers dipped 10 seconds, 10 g/L solution)	fluorescence observed qualitatively under blue lamp ([3]; dental fibers dipped 10 seconds, 50 g/L solution)
O=C1OC2(c3ccc(O)cc3Oc3cc(O)ccc32)c2ccccc21 [fluorescein]	photo-degrades faster						
O=C([O-])c1ccccc1-c1c2cc(Br)c(=O)c(Br)c-2oc2c(Br)c([O-])c(Br)cc12.[Na+].[Na+] [Eosin Y, 2′,4′,5′,7′-tetrabromo-fluorescein, dianion]		barely photodegraded	red shifted	almost twice as fluorescent	little fluorescence	significant increase in fluorescence	showed fluorescence
